{"source": "patent US12653816B2", "about": "“Composition for inhibiting growth of cancer stem cells” (INDUSTRY-ACADEMIC COOPERATION FOUNDATION, YONSEI UNIVERSITY, priority 2020, dated 2026)", "key": {"[1]": {"system": "lung fibrosis lung fibroblasts", "conditions": "cited from earlier work"}, "[2]": {"system": "murine model of skin injury", "conditions": "cited from earlier work"}, "[3]": {"system": "human colonic myofibroblasts", "conditions": "cited from earlier work"}, "[4]": {"system": "HS746T cell line", "experiment": "Cell viability assay (Cell Counting Kit-8), HS746T", "assay_type": "cell-based, human", "conditions": "for antitumor effect (number of living cells) / antitumor effect (cell viability): treatment alone, 48 hours; for antitumor effect (number of living cells): cisplatin 5 and 10 μM, compounds 5 and 10 μg/ml, FIGS. 7A and 7B; for antitumor effect (cell viability): HS746T stem-like cells, various concentrations, FIG. 1", "description": "(§1) In order to evaluate the ability to inhibit the growth or metastasis of cancer cells or cancer stem cells in the examples according to the present invention, the present inventors obtained MKN1 and HS746T, which are cell lines having human gastric cancer stem cell characteristics, and SNU601, YCC7 and NCIN87 cells, which are human gastric cancer cell lines, from the American Type Culture Collection (ATCC) and the Korean Cell Line Bank (KCRB). The cell lines were cultured in different culture media and culture conditions according to ATCC's or KCRB's guidelines. The MKN1, SNU601, and NCIN87 cell lines were cultured in RPMI1640 medium containing 10% fetal bovine serum (FBS), 2 mM L-glutamine, 100 U/ml penicillin and 100 μg/ml streptomycin, and the HS746T and YCC7 Cell lines were cultured in DMEM containing 10% FBS, 2 mM L-glutamine, 100 U/ml penicillin and 100 μg/ml streptomycin. All the cell lines were cultured at 37° C. under 5% CO2, and subjected to a mycoplasma contamination test.\n(§2) Each of the cell lines cultured in the Preparation Example was dispensed into a well plate at a density of 1×10^4 cells per well, and cultured overnight at 37° C. under 5% CO2. Then, the HS746T and MKN1 cell lines, which are gastric cancer stem-like cells, and the YCC7 and NCIN87 cell lines, which are gastric cancer cells, were treated with various concentrations of each of cisplatin (CDDP), which is an anticancer drug currently frequently used in the treatment of gastric cancer patients, and the compound CCG-232601 which is an MRTF-A inhibitor. 100 μL of each cell culture and 10 μL of reaction buffer (CCK) were mixed together, placed in a 96-well plate, and incubated for 1 hour at room temperature, and then the absorbance at a wavelength of 450 nm was measured using a spectrophotometer (Synergy HTX Multi-Reader, BioTek, Winooski, VT, USA). At the same time, the number of cells in each sample was measured with a cell viability assay kit (Cell Counting Kit-8), and the measured value was converted so that the measured value for the same number of cells in each sample could be compared with the number of cells in the negative control group. The experimental results presented are the mean values of the repeated experiments.\nThe present inventors attempted to further confirm the therapeutic effects of the compounds CCG-222740 and CCG-203971, which are compounds other than the compound CCG-232601 corresponding to the MRTFA/SRF inhibitors, against cancer stem cells. As reviewed in Example 1 above, it has been confirmed that the gastric cancer cell line HS746T is of a stem cell-like gastric cancer type, and thus is resistant to the anticancer drug cisplatin. The HS746T cell line was treated with cisplatin and the compounds CCG-222740 and CCG-203971 corresponding to MRTFA/SRF inhibitors. For cell treatment, cisplatin was used at concentrations of 0 μM, 5 μM and 10 μM, and the compound CCG-222740 or CCG-203971 was used at concentrations of 0 μg/ml, 5 μg/ml and 10 μg/ml. The control group was treated with the same amount of DMSO as the compound used for each experimental group. After 48 hours, the number of living cells was measured using a cell viability assay kit (Cell Counting Kit-8), and the results are shown in FIGS. 7A and 7B."}, "[5]": {"system": "alpha smooth muscle actin protein", "conditions": "cited from earlier work"}, "[6]": {"system": "preclinical model of fibrosis", "conditions": "cited from earlier work"}, "[7]": {"system": "HS746T cell line", "experiment": "Oxygen consumption rate and extracellular acidification rate (Seahorse), HS746T", "assay_type": "cell-based, human", "description": "(§3) In particular, in order to confirm that the compound CCG-232601 has an excellent inhibitory effect on cancer stem cell growth, the oxygen consumption rates (OCRs) and extracellular acidification rates (ECARs) of the stem-like cell lines HS746T and MKN1 having high resistance to metabolic stress were measured and the results are shown in FIG. 2. More specifically, each of the cell lines was seeded in Seahorse normal culture medium at 70 to 80% confluency, and mitochondrial oxidation and glycolytic activity were measured by measuring oxygen consumption rate (OCR, pmol/min/μg protein) and extracellular acidification rate (ECAR, mpH/min/μg protein) using an XF96 or XFp extracellular flux analyzer (Agilent). Mitochondrial oxidation ability of cells pretreated for 1 hour with or without 10 mM β-HB (Sigma) was evaluated using the Seahorse XF mito stress kit (Agilent). To address changes in oxidation and glycolysis upon treatment with CCG-232601, cells were pretreated overnight with vehicle or the inhibitor, and finally 10 mM β-hydroxybutyrate was added during the first injection."}, "[8]": {"system": "NCIN87 cell line", "experiment": "Cell viability assay (Cell Counting Kit-8), NCIN87", "assay_type": "cell-based, human", "conditions": "NCIN87 gastric cancer cells, treatment alone, various concentrations, 48 hours, FIG. 1", "description": "(§4) In order to evaluate the ability to inhibit the growth or metastasis of cancer cells or cancer stem cells in the examples according to the present invention, the present inventors obtained MKN1 and HS746T, which are cell lines having human gastric cancer stem cell characteristics, and SNU601, YCC7 and NCIN87 cells, which are human gastric cancer cell lines, from the American Type Culture Collection (ATCC) and the Korean Cell Line Bank (KCRB). The cell lines were cultured in different culture media and culture conditions according to ATCC's or KCRB's guidelines. […]\n(§5) Each of the cell lines cultured in the Preparation Example was dispensed into a well plate at a density of 1×10^4 cells per well, and cultured overnight at 37° C. under 5% CO2. […] 100 μL of each cell culture and 10 μL of reaction buffer (CCK) were mixed together, placed in a 96-well plate, and incubated for 1 hour at room temperature, and then the absorbance at a wavelength of 450 nm was measured using a spectrophotometer (Synergy HTX Multi-Reader, BioTek, Winooski, VT, USA). At the same time, the number of cells in each sample was measured with a cell viability assay kit (Cell Counting Kit-8), and the measured value was converted so that the measured value for the same number of cells in each sample could be compared with the number of cells in the negative control group. […]"}, "[9]": {"system": "MKN1 cell line", "experiment": "Oxygen consumption rate and extracellular acidification rate (Seahorse), MKN1", "assay_type": "cell-based, human", "description": "as §3"}, "[10]": {"system": "YCC7 cell line", "experiment": "Cell viability assay (Cell Counting Kit-8), YCC7", "assay_type": "cell-based, human", "conditions": "YCC7 gastric cancer cells, treatment alone, various concentrations, 48 hours, FIG. 1", "description": "as §4, §5"}, "[11]": {"system": "MKN1 cell line", "experiment": "Cell viability assay (Cell Counting Kit-8), MKN1", "assay_type": "cell-based, human", "conditions": "for antitumor effect (cell viability): MKN1 stem-like cells, treatment alone, various concentrations, 48 hours, FIG. 1", "description": "as §1, §2\nAccordingly, in order to evaluate the effect of co-administration of the compound CCG-232601, the survival and growth inhibitory effects of administration of CCG-232601 and cisplatin (CDDP) alone or in combination to the MKN1 cell line were evaluated using a cell viability assay kit (Cell Counting Kit-8; CCK-8). In order to evaluate the effect of administration in combination compared to that of administration alone, 5 μg/ml of CCG-232601 was firstly administered to the MKN1 cell line, and after 24 hours, 5 μM cisplatin (CDDP) was secondarily administered. After 24 hours therefrom, the results were checked with a cell viability analysis kit (CCK-8 assay)."}, "[12]": {"system": "MKN1 cell line", "experiment": "Transwell invasion assay, MKN1", "assay_type": "cell-based, human", "conditions": "MKN1, 10 μg/ml, 12 hours, Matrigel transwell, FIG. 3", "description": "(§6) Transwell invasion assay was performed with or without CCG-232601 treatment. The invasion ability was measured using a 6.5-mm transwell with an 8.0 μm-pore polycarbonate membrane insert (Corning) after coating with Matrigel (Corning) diluted to 0.67 μg/μl with serum-free medium. Then, cells (2×10^4 cells/well) were suspended in 200 μL of a serum-free medium with vehicle or in 10 μg/ml of CCG-232601, and 1,000 μL of culture medium containing 10% FBS was added to the lower chamber. After 12 hours, the migrated cells were stained with 0.2% crystal violet and observed under an optical microscope. The average number of cells that penetrated the membrane was calculated with ImageJ (NIH) from three randomly selected high-power fields and from two independent experiments, and the results are shown in FIG. 3."}, "[13]": {"system": "HS746T cell line", "experiment": "Transwell invasion assay, HS746T", "assay_type": "cell-based, human", "conditions": "10 μg/ml, 12 hours, Matrigel transwell, FIG. 3", "description": "as §6"}, "[14]": {"system": "bleomycin-induced dermal fibrosis", "conditions": "administered orally to mice; cited from earlier work"}}}
{"smiles": "O=C(Nc1ccc(Cl)cc1)C1CCCN(C(=O)c2cccc(-c3ccco3)c2)C1", "note": "(centres unmarked) [CCG-203971, N-(4-chlorophenyl)-1-(3-(furan-2-yl)benzoyl)piperidine-3-carboxamide]", "values": [{"measurement": "anti-fibrotic activity", "setting": "[1]", "result": "exhibits anti-fibrotic activity"}, {"measurement": "anti-fibrotic activity", "setting": "[2]", "result": "exhibits anti-fibrotic activity"}, {"measurement": "matrix stiffness and TGF-β-mediated fibrogenesis", "setting": "[3]", "result": "inhibits both matrix stiffness and TGF-β-mediated fibrogenesis"}, {"measurement": "antitumor effect (number of living cells)", "setting": "[4]; HS746T", "result": "significantly improved antitumor effect"}]}
{"smiles": "O=C(Nc1ccc(Cl)cc1)C1CN(C(=O)c2cccc(-c3ccco3)c2)CC(F)(F)C1", "note": "(centres unmarked) [CCG-222740, N-(4-Chlorophenyl)-5,5-difluoro-1-(3-(furan-2-yl)benzoyl)piperidine-3-carboxamide]", "values": [{"measurement": "expression of alpha smooth muscle actin protein", "setting": "[5]", "result": "prevent the expression of alpha smooth muscle actin protein"}, {"measurement": "scar tissue formation", "setting": "[6]", "result": "effectively prevent scar tissue formation"}, {"measurement": "antitumor effect (number of living cells)", "setting": "[4]; HS746T", "result": "significantly improved antitumor effect"}]}
{"smiles": "O=C(Nc1ccc(Cl)cc1)C1CN(C(=O)c2cccc(-c3ccncc3)c2)CC(F)(F)C1", "note": "(centres unmarked) [CCG-232601, N-(4-chlorophenyl)-5,5-difluoro-1-(3-(pyridin-4-yl)benzoyl)piperidine-3-carboxamide]", "values": [{"measurement": "extracellular acidification rate (ECAR) versus oxygen consumption rate (OCR)", "setting": "[7]; HS746T, pretreated overnight, 10 mM β-hydroxybutyrate at first injection, FIG. 2", "result": "the glycolysis ECAR was higher than OCR"}, {"measurement": "sensitivity to glucose deprivation", "setting": "[7]; gastric cancer stem cells (HS746T)", "result": "greatly increased the sensitivity to glucose deprivation"}, {"measurement": "antitumor effect (cell viability)", "setting": "[8]", "result": "exhibited antitumor effects"}, {"measurement": "extracellular acidification rate (ECAR) versus oxygen consumption rate (OCR)", "setting": "[9]; MKN1, pretreated overnight, 10 mM β-hydroxybutyrate at first injection, FIG. 2", "result": "the glycolysis ECAR was higher than OCR"}, {"measurement": "sensitivity to glucose deprivation", "setting": "[9]; gastric cancer stem cells (MKN1)", "result": "greatly increased the sensitivity to glucose deprivation"}, {"measurement": "antitumor effect (cell viability)", "setting": "[10]", "result": "exhibited antitumor effects"}, {"measurement": "cell viability lower than in the negative control group and the cisplatin-only group", "setting": "[11]; MKN1, 5 μg/ml administered alone, CCK-8, FIG. 6", "result": 20, "unit": "%"}, {"measurement": "antitumor effect (cell viability)", "setting": "[11]", "result": "significantly improved antitumor effects"}, {"measurement": "invasion and metastasis (cells that penetrated the membrane)", "setting": "[12]", "result": "reduced the invasion and metastasis"}, {"measurement": "invasion and metastasis (cells that penetrated the membrane)", "setting": "[13]", "result": "reduced the invasion and metastasis"}, {"measurement": "development of bleomycin-induced dermal fibrosis", "setting": "[14]", "result": "suppress the development of bleomycin-induced dermal fibrosis"}, {"measurement": "antitumor effect (cell viability)", "setting": "[4]", "result": "significantly improved antitumor effects"}]}
{"smiles": "N.N.[Cl][Pt][Cl]", "note": "[cisplatin]", "values": [{"measurement": "drug sensitivity upon cisplatin (CDDP) treatment", "setting": "[11]; MKN1, FIG. 4", "result": "exhibited resistance to cisplatin"}, {"measurement": "antitumor effect (cell viability)", "setting": "[11]", "result": "did not exhibit antitumor effects"}, {"measurement": "drug sensitivity lower than that of the cancer cell lines", "setting": "[11]; MKN1 versus SNU601 and NCIN87, cisplatin, FIG. 4", "result": "20 to 40", "unit": "%"}, {"measurement": "antitumor effect (cell viability)", "setting": "[4]", "result": "did not exhibit antitumor effects"}, {"measurement": "drug sensitivity lower than that of the cancer cell lines", "setting": "[4]; HS746T versus SNU601 and NCIN87, cisplatin, FIG. 4", "result": "20 to 40", "unit": "%"}, {"measurement": "drug sensitivity upon cisplatin (CDDP) treatment", "setting": "[4]; HS746T, FIG. 4", "result": "exhibited resistance to cisplatin"}, {"measurement": "antitumor effect (number of living cells)", "setting": "[4]; HS746T", "result": "did not exhibit an antitumor effect"}]}
